ChEMBL document CHEMBL4732204, “Multitargeting application of proline-derived peptidomimetics addressing cancer-related human matrix metalloproteinase 9 and carbonic anhydrase II” (Eur J Med Chem, 2021)

Legend:
Carbonic anhydrase 12 = Carbonic anhydrase 12 (Homo sapiens, UniProt O43570); assay: Inhibition of human CA12 incubated for 15 mins by stopped-flow CO2 hydration kinetic assay based Cheng-Prusoff equation analysis
Carbonic anhydrase 9 = Carbonic anhydrase 9 (Homo sapiens, UniProt Q16790); assay: Inhibition of human CA9 incubated for 15 mins by stopped-flow CO2 hydration kinetic assay based Cheng-Prusoff equation analysis
[1] = target: Matrix metalloproteinase-9 (Homo sapiens, UniProt P14780); assay: Inhibition of MMP9 (unknown origin) using Mca-Lys-Pro-Leu-Gly-Leu-Dpa-Ala-Arg-NH2 as substrate incubated for 5 min followed by substrate addition and measured for 30 mins by fluorescence based assay
[2] = target: 72 kDa type IV collagenase (Homo sapiens, UniProt P08253)
Carbonic anhydrase 1 = Carbonic anhydrase 1 (Homo sapiens, UniProt P00915); assay: Inhibition of human CA1 incubated for 15 mins by stopped-flow CO2 hydration kinetic assay based Cheng-Prusoff equation analysis
Carbonic anhydrase 2 = Carbonic anhydrase 2 (Homo sapiens, UniProt P00918); assay: Inhibition of human CA2 incubated for 15 mins by stopped-flow CO2 hydration kinetic assay based Cheng-Prusoff equation analysis

Sequence of Carbonic anhydrase 1 (P00915 whole entry): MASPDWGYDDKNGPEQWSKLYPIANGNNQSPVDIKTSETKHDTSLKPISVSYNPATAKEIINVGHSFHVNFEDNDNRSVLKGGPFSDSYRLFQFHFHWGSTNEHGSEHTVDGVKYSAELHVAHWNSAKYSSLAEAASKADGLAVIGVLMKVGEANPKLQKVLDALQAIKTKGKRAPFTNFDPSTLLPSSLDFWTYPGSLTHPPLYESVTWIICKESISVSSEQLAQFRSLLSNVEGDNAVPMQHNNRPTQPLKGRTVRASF
Sequence of Matrix metalloproteinase-9 (P14780 whole entry): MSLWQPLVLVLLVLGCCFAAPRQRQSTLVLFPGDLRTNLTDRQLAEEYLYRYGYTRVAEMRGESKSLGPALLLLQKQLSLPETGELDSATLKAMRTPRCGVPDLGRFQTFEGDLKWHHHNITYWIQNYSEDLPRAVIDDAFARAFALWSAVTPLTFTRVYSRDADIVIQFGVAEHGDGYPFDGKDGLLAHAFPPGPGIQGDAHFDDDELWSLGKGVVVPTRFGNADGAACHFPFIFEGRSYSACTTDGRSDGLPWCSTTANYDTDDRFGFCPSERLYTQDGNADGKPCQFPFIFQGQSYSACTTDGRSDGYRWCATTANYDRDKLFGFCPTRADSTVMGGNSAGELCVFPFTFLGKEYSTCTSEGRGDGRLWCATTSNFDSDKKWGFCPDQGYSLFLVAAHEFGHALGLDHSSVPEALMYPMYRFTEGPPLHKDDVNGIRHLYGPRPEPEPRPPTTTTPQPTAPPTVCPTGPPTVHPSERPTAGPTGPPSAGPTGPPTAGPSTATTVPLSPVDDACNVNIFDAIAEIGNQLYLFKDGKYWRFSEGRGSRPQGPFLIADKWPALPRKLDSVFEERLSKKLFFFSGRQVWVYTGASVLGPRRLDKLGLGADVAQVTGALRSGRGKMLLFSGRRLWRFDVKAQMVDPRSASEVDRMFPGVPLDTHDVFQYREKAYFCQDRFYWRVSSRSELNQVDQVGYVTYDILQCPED
Sequence of Carbonic anhydrase 12 (O43570 whole entry): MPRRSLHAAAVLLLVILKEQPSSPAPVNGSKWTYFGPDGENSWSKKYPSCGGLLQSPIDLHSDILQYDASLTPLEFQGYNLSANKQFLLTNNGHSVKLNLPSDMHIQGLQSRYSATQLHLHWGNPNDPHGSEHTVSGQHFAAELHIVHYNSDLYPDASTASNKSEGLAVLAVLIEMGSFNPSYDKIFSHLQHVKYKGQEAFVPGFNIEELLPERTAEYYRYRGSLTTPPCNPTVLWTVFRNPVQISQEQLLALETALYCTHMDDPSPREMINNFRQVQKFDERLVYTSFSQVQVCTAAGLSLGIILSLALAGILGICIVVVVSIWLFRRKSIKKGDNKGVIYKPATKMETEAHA
Sequence of 72 kDa type IV collagenase (P08253 whole entry): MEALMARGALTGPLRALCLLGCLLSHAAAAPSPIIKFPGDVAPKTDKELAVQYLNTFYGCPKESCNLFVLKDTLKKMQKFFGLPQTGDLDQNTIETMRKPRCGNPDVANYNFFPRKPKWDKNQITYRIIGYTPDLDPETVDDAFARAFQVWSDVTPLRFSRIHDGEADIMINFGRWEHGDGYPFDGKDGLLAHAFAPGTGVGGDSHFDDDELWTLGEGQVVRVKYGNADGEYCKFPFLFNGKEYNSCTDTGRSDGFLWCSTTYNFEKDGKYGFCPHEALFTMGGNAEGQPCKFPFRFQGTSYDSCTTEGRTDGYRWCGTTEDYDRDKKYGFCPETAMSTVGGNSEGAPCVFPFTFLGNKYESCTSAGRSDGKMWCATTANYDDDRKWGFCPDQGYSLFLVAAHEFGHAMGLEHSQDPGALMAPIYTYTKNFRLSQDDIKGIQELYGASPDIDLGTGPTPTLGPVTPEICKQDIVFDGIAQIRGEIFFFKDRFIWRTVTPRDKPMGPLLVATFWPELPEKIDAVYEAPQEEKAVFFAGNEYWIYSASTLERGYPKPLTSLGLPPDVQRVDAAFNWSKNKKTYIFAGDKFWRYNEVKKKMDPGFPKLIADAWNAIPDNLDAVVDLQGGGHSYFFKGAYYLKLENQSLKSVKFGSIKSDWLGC

Row | SMILES | Ki (Carbonic anhydrase 12) [µM] | Ki (Carbonic anhydrase 9) [µM] | Ki [1] [µM] | Ki [2] [nM] | Ki (Carbonic anhydrase 1) [µM] | Ki (Carbonic anhydrase 2) [µM]
1 | COc1ccc(S(=O)(=O)N2C[C@@H](NS(=O)(=O)c3ccc(-c4ccccc4)cc3)C[C@@H]2C(=O)NO)cc1 | > 100 | > 100 | 0.482 | 406 | > 100 | > 100
2 | O=C(NO)[C@H]1C[C@@H](NS(=O)(=O)c2ccc(-c3ccccc3)cc2)CN1S(=O)(=O)c1ccc(Cl)c(Cl)c1 | 67.2 | > 100 | 0.541 | > 10000 | > 100 | 24.8
3 | COc1ccc(S(=O)(=O)N2C[C@H](NC(=O)C(C)(C)C)C[C@@H]2C(=O)NO)cc1 | – | – | 0.123 | 26 | > 100 | > 100
4 | CCCCCCO[C@H]1CCN(S(=O)(=O)c2ccc(Cl)cc2)[C@H]1C(=O)NO | – | – | > 10 | > 10000 | > 100 | > 100
5 | O=C(Nc1ccc(S(=O)(=O)N2CCC[C@@H]2C(=O)NO)cc1)OCc1ccccc1 | – | – | 0.473 | 2.16 | > 100 | > 100
6 | COc1ccc(S(=O)(=O)N2CCC[C@@H]2C(=O)NO)cc1 | – | – | 0.02 | – | > 100 | > 100
7 | O=C(Nc1ccc(C(=O)Nc2ccc(S(=O)(=O)N3CCC[C@@H]3C(=O)NO)cc2)cc1)OCc1ccccc1 | – | – | 0.032 | 0.044 | > 100 | > 100
8 | O=C(NO)[C@H]1C[C@H](NS(=O)(=O)c2ccc(-c3ccccc3)cc2)CN1S(=O)(=O)c1ccc(Cl)c(Cl)c1 | 98.5 | > 100 | 0.057 | 328 | > 100 | 6.68
9 | O=C(NO)[C@H]1C[C@@H](n2cc(-c3ccccc3)nn2)CN1S(=O)(=O)c1ccc(Cl)c(Cl)c1 | – | – | > 10 | – | > 100 | > 100
10 | O=C(NO)[C@H]1C[C@H](NS(=O)(=O)c2ccc(-c3ccccc3)cc2)CN1S(=O)(=O)c1ccc(OC(F)(F)F)cc1 | > 100 | > 100 | > 100 | > 100000 | > 100 | > 100
11 | O=C(NO)[C@H]1C[C@H](n2cc(-c3ccccc3)nn2)CN1S(=O)(=O)c1ccc(Cl)c(Cl)c1 | – | – | 1.55 | – | > 100 | > 100

The remaining lines, values ahead:

Row | Ki (Carbonic anhydrase 12) [µM] | Ki (Carbonic anhydrase 9) [µM] | Ki [1] [µM] | Ki [2] [nM] | Ki (Carbonic anhydrase 1) [µM] | Ki (Carbonic anhydrase 2) [µM] | SMILES
12 | – | – | 0.324 | – | > 100 | > 100 | O=C(/C=C/c1ccco1)N[C@H]1C[C@H](C(=O)NO)N(S(=O)(=O)c2ccc(Cl)c(Cl)c2)C1
13 | – | – | > 10 | – | > 100 | > 100 | O=C(NO)[C@H]1[C@@H](OCc2ccccc2)CCN1S(=O)(=O)c1ccc(Cl)c(Cl)c1
14 | – | – | 0.00011 | 0.087 | > 100 | > 100 | O=C(Nc1ccc(S(=O)(=O)N2CCC[C@@H]2C(=O)NO)cc1)c1ccc([N+](=O)[O-])cc1
15 | – | – | 0.00083 | 0.25 | > 100 | > 100 | O=C(NO)[C@H]1CCCN1S(=O)(=O)c1ccc(C#Cc2ccccc2)cc1
16 | 8.82 | 21.4 | 0.294 | 54 | > 100 | > 100 | O=C(NO)[C@H]1C[C@H](NS(=O)(=O)c2ccc(-c3ccccc3)cc2)CN1S(=O)(=O)c1ccc(-c2ccccc2)cc1
17 | 9.19 | 20.7 | > 100 | > 100000 | 8.4 | 6.13 | COc1ccc(S(=O)(=O)N2C[C@@H](NS(=O)(=O)c3ccc(-c4ccccc4)cc3)C[C@@H]2C(=O)O)cc1
18 | > 100 | 23.3 | > 100 | – | 52.9 | 44.8 | O=C(NO)[C@H]1C[C@H](NS(=O)(=O)c2ccc(-c3ccccc3)cc2)CN1S(=O)(=O)c1ccc([N+](=O)[O-])cc1
19 | – | – | > 10 | > 10000 | > 100 | > 100 | O=C(N[C@H]1C[C@H](C(=O)NO)N(S(=O)(=O)c2ccc(Cl)c(Cl)c2)C1)c1cccs1
20 | 47 | > 100 | 3.88 | 2260 | > 100 | > 100 | CS(=O)(=O)N1C[C@@H](NS(=O)(=O)c2ccc(-c3ccccc3)cc2)C[C@@H]1C(=O)NO
21 | – | – | 0.091 | 131 | > 100 | > 100 | O=C(N[C@@H]1C[C@H](C(=O)NO)N(S(=O)(=O)c2ccc(Cl)c(Cl)c2)C1)c1cccs1
